This note sets out measurements from US20110183969A1, “ANTIFUNGAL COMBINATION THERAPY” (priority 2008, published 2011).

≈ marks a conversion by molar mass, not a printed value. Where only a bound is given, the exact number is not on record here.

Holding throughout (experiment): MIC (YAG medium)
What all share (format): cell-based

In experiment [1] the test system is Aspergillus fumigatus AF210. The settings on record: YAG medium, MIC banded into grades, AF210; for MIC: Aspergillus fumigatus, read-out: MIC A. fumigatus 210 (grade). The procedure, abridged:
(§1)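 OD 485 nm read-out after 24 h, 35° C; MIC = lowest concentration inhibiting growth >70% vs drug-free control, in mg/L. Medium YAG (1% glucose, 1% NH4Cl, 0.5% yeast extract); inoculum 1-2×10^4 cfu/mL; compound range 50-0.05 mg/L, repeated at 0.5-0.0005 mg/L […].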

Experiment [2] relates to Aspergillus fumigatus AF293. The settings on record: YAG medium, MIC banded into grades, AF293; for MIC: Aspergillus fumigatus, read-out: MIC A. fumigatus (grade). The procedure, abridged:
as §1

The subject of experiment [3] is Aspergillus terreus AT4. The settings on record: YAG medium, MIC banded into grades, AT4; for MIC: Aspergillus terreus, read-out: MIC A. terreus (grade). The procedure, abridged:
as §1

Experiment [4] deals with Aspergillus niger. The following applies: YAG medium, MIC banded into grades; for MIC: Aspergillus niger, read-out: MIC A. niger (grade). The procedure, abridged: as §1
The subject of experiment [5] is Aspergillus flavus. The settings on record: YAG medium, MIC banded into grades; for MIC: Aspergillus flavus, read-out: MIC A. flavus (grade). The procedure, abridged:
as §1

The subject of experiment [6] is Aspergillus terreus AT49. The following applies: YAG medium, MIC banded into grades, AT49; for MIC: Aspergillus terreus, read-out: MIC A. terreus 49 (grade). The procedure, abridged:
as §1

With `Cc1ccccc1-c1cc2ccccn2c1C(=O)C(=O)Nc1ccc(N2CCN(Cc3ccco3)CC2)cn1` [Example 35, N-[5-(2-Furan-2-yl-methyl-piperazin-yl)-peridin-2-yl]-2-oxo-2-(2-o-tolyl-indolizin-3-yl)-acetamide], the “MIC A. fumigatus 210 (grade)” value in experiment [1] is 3 (A grade of 3 represents an MIC of less than 1 mg/L). For the same compound, the “MIC A. fumigatus (grade)” value in experiment [2] is reported as 3 (A grade of 3 represents an MIC of less than 1 mg/L). In experiment [3], the “MIC A. terreus (grade)” value is on record as 3 (A grade of 3 represents an MIC of less than 1 mg/L). Moreover, the “MIC A. niger (grade)” value in experiment [4] was 3 (A grade of 3 represents an MIC of less than 1 mg/L). The “MIC A. flavus (grade)” value in experiment [5] is 3 (A grade of 3 represents an MIC of less than 1 mg/L). Further, the “MIC A. terreus 49 (grade)” value in experiment [6] is 3 (A grade of 3 represents an MIC of less than 1 mg/L).

Turning to `Cc1cc(C)nc(N(C)CCN(C)c2ccc(NC(=O)C(=O)c3c(-c4ccccc4)cc4ccccn34)cc2)c1` [Example 55, N-[4-({2-[(4,6-Dimethyl-pyridin-2-yl)-methyl-amino]-ethyl}-methyl-amino)-phenyl]-2-oxo-2-(2-phenyl-indolizin-3-yl)-acetamide], the MIC in experiment [1], in experiment [2], in experiment [3], in experiment [4], in experiment [5] and in experiment [6] was below 1 µg/mL in each case.

Regarding `Cc1cc(C)nc(N2CCCN(c3ccc(NC(=O)C(=O)c4c(-c5ccccc5)cc5ccccn45)cc3)CC2)c1` [Example 54, N-{4-[4-(4,6-Dimethyl-pyridin-2-yl)-[1,4]diazepan-1-yl]-phenyl}-2-oxo-2-(2-phenyl-indolizin-3-yl)-acetamide], the MIC in experiment [1], in experiment [2], in experiment [3], in experiment [4], in experiment [5] and in experiment [6] was below 1 µg/mL throughout.

Consider `CCC(CC)N1CCN(c2ccc(NC(=O)C(=O)c3c(-c4ccccc4Cl)cc4ccccn34)cn2)CC1` [Example 10, 2-[2-(2-chloro-phenyl)-indolizin-3-yl]-N-{6-[4-(1-ethyl-propyl)-piperazin-1-yl]-pyridin-3-yl}-2-oxo-acetamide], for which the MIC in experiment [1], in experiment [2], in experiment [3], in experiment [4], in experiment [5] and in experiment [6] was below 1 µg/mL throughout.

With “N-(4-{3-[(4,6-Dimethyl-pyridin-2-yl)-methyl-amino]-propyl}-phenyl)-2-oxo-2-(2-phenyl-indolizin-3-yl)-acetamide [Example 70]”, the “MIC A. fumigatus 210 (grade)” value in experiment [1] is 3 (A grade of 3 represents an MIC of less than 1 mg/L). For the same compound, the “MIC A. fumigatus (grade)” value in experiment [2] is 3 (A grade of 3 represents an MIC of less than 1 mg/L). For the same compound, in experiment [3], the “MIC A. terreus (grade)” value is reported as 3 (A grade of 3 represents an MIC of less than 1 mg/L). For the same compound, the “MIC A. niger (grade)” value in experiment [4] is given as 3 (A grade of 3 represents an MIC of less than 1 mg/L). For the same compound, in experiment [5], the “MIC A. flavus (grade)” value is listed as 3 (A grade of 3 represents an MIC of less than 1 mg/L). For the same compound, the “MIC A. terreus 49 (grade)” value in experiment [6] was 3 (A grade of 3 represents an MIC of less than 1 mg/L).

Consider `O=C(Nc1ccc(N2CCN(c3cccc(CCO)n3)CC2)cc1)C(=O)c1c(-c2ccccc2)cc2ccccn12` [Example 88, N-(4-{4-[6-(2-hydroxy-ethyl)-pyridin-2-yl]-piperazin-1-yl}-phenyl)-2-oxo-2-(2-phenyl-indolizin-3-yl)-acetamide], for which the MIC in experiment [1], in experiment [2], in experiment [3], in experiment [4], in experiment [5] and in experiment [6] was below 1 µg/mL each time.

For `O=C(Nc1ccccc1F)C(=O)c1c(-c2ccccc2)cc2ccc3ccccc3n12` [Example 4, N-(2-fluoro-phenyl)-2-oxo-2-(2-phenyl-pyrrolo[1,2-a]quinolin-1-yl)-acetamide], the MIC in experiment [1], in experiment [2], in experiment [3], in experiment [4], in experiment [5] and in experiment [6] was above 10 µg/mL in each case.

On to `Cc1cc(C)nc(N2CCN(c3ccc(NC(=O)C(=O)c4c(C(C)C)cc5ccccn45)cc3)CC2)c1` [Example 61, N-{4-[4-(4,6-Dimethyl-pyridin-2-yl)-piperazin-1-yl]-phenyl}-2-(2-isopropyl-indolizin-3-yl)-2-oxo-acetamide], for which the MIC in experiment [1], in experiment [2], in experiment [3], in experiment [4], in experiment [5] and in experiment [6] was below 1 µg/mL each time.

For `Cc1nc(C(C)C)cn1C(C)(C)c1cccc(NC(=O)C(=O)c2c(-c3ccccc3)cc3ccccn23)c1` [Example 25], in experiment [1], the “MIC A. fumigatus 210 (grade)” value was 1 (a grade of 1 represents an MIC of greater than 10 mg/L). In experiment [2], the “MIC A. fumigatus (grade)” value is 1 (a grade of 1 represents an MIC of greater than 10 mg/L). Moreover, in experiment [3], the “MIC A. terreus (grade)” value is 2 (A grade of 2 represents an MIC of from 1 to 10). Besides, the “MIC A. niger (grade)” value in experiment [4] was 1 (a grade of 1 represents an MIC of greater than 10 mg/L). In addition, the “MIC A. flavus (grade)” value in experiment [5] was 2 (A grade of 2 represents an MIC of from 1 to 10). For the same compound, in experiment [6], the “MIC A. terreus 49 (grade)” value was 2 (A grade of 2 represents an MIC of from 1 to 10).

As to `Cc1cc(C)nc(N(C)CCOc2ccc(NC(=O)C(=O)c3c(-c4ccccc4)cc4ccccn34)cc2)c1` [Example 64, N-(4-{2-[(4,6-Dimethyl-pyridin-2-yl)-methyl-amino]-ethoxy}-phenyl)-2-oxo-2-(2-phenyl-indolizin-3-yl)-acetamide], the MIC in experiment [1], in experiment [2], in experiment [3], in experiment [4], in experiment [5] and in experiment [6] was below 1 µg/mL each time.

With `Cc1cc(N2CCN(c3ccc(NC(=O)C(=O)c4c(-c5ccccc5)cc5ccccn45)cc3)CC2)cc(C)n1` [Example 52, N-{4-[4-(2,6-Dimethyl-pyridin-4-yl)-piperazin-1-yl]-phenyl}-2-oxo-2-(2-phenyl-indolizin-3-yl)-acetamide], the MIC in experiment [1], in experiment [2], in experiment [3], in experiment [4], in experiment [5] and in experiment [6] was above 10 µg/mL throughout.

`O=C(Nc1ccc(N2CCN(c3cccc(N(CCO)CCO)n3)CC2)cc1)C(=O)c1c(-c2ccccc2)cc2ccccn12` [Example 86, N-[4-(4-{6-[Bis-(2-hydroxy-ethyl)-amino]-pyridin-2-yl}-piperazin-1-yl)-phenyl]-2-oxo-2-[2-phenyl-indolizin-3-yl)-acetamide]: the MIC (usually the lowest concentration found to suppress growth) in experiment [1] is 1 to 10 µg/mL (≈ 1.65 to 16.5 µM); in experiment [2], below 1 µg/mL; in experiment [3] it was 1 to 10 µg/mL (≈ 1.65 to 16.5 µM); in experiment [4] it was 1 to 10 µg/mL (≈ 1.65 to 16.5 µM); in experiment [5] it was below 1 µg/mL; in experiment [6], 1 to 10 µg/mL (≈ 1.65 to 16.5 µM).

“2-Oxo-2-(2-phenyl-indolizin-3-yl)-N-{4-[4-(2-pyridin-yl-ethyl)-perazin-1-yl]-phenyl}-acetamide [Example 36]”: in experiment [1], the “MIC A. fumigatus 210 (grade)” value is 3 (A grade of 3 represents an MIC of less than 1 mg/L). In addition, the “MIC A. fumigatus (grade)” value in experiment [2] is on record as 3 (A grade of 3 represents an MIC of less than 1 mg/L). Besides, the “MIC A. terreus (grade)” value in experiment [3] is reported as 3 (A grade of 3 represents an MIC of less than 1 mg/L). In addition, the “MIC A. niger (grade)” value in experiment [4] is given as 3 (A grade of 3 represents an MIC of less than 1 mg/L). The “MIC A. flavus (grade)” value in experiment [5] is on record as 3 (A grade of 3 represents an MIC of less than 1 mg/L). The “MIC A. terreus 49 (grade)” value in experiment [6] is 3 (A grade of 3 represents an MIC of less than 1 mg/L).

For `CCOCCN(C1=NC(C)(C)CO1)c1ccc(NC(=O)C(=O)c2c(-c3ccccc3)cc3ccccn23)cc1` [Example 28], the “MIC A. fumigatus 210 (grade)” value in experiment [1] was 2 (A grade of 2 represents an MIC of from 1 to 10). The “MIC A. fumigatus (grade)” value in experiment [2] is recorded as 2 (A grade of 2 represents an MIC of from 1 to 10). Besides, the “MIC A. terreus (grade)” value in experiment [3] is on record as 2 (A grade of 2 represents an MIC of from 1 to 10). For the same compound, the “MIC A. niger (grade)” value in experiment [4] is 3 (A grade of 3 represents an MIC of less than 1 mg/L). The “MIC A. flavus (grade)” value in experiment [5] is listed as 2 (A grade of 2 represents an MIC of from 1 to 10). In experiment [6], the “MIC A. terreus 49 (grade)” value is on record as 2 (A grade of 2 represents an MIC of from 1 to 10).

Consider `O=C(Nc1ccc(N2CCN(c3cccc(NCCO)n3)CC2)cc1)C(=O)c1c(-c2ccccc2)cc2ccccn12` [Example 87, N-(4-{4-[6-(2-hydroxyethylamino)-pyridin-2-yl]-piperazin-1-yl}-phenyl)-2-oxo-2-(2-phenyl-indolizin-3-yl)-acetamide], for which the MIC is 1 to 10 µg/mL (≈ 1.78 to 17.8 µM) in experiment [1]; below 1 µg/mL in experiment [2]; 1 to 10 µg/mL (≈ 1.78 to 17.8 µM) in experiment [3]; above 10 µg/mL in experiment [4]; below 1 µg/mL in experiment [5]; below 1 µg/mL in experiment [6].
